pIC50: −log10 of the molar value.
What was measured:
[1] = In vitro microsome stability analyses; assay type: in vitro ADME; settings: result in words
[2] = test system: MOLP-8; assay: In vitro cell viability assay (CellTiter-Glo, ATP levels), multiple myeloma cells; assay type: cell-based; settings: Homo sapiens, MOLP-8, 168 h, 7-day incubation, CellTiter-Glo, average values; read-out: MOLP-8 IC50
Outline: (§1)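 Cells plated overnight, then exposed to compounds over a concentration range for 7 days at 37 °C, 5% CO2. Viability read as ATP luminescence (CellTiter-Glo), normalised to positive and negative control wells; IC50 from Hill-equation non-linear regression of concentration–response curves.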

[3] = test system: HCT116 (colorectal cancer) cells; assay: Resazurin-based cell viability assay using colorectal cancer cells; settings: Homo sapiens, HCT-116, 72 hr incubation
Outline: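 HCT116 cells in DMEM/10% FBS grown 24 h, then exposed to serially diluted compounds for 72 h at 37 °C. Viability read as resazurin (1 mM) fluorescence (ex 535/em 590 nm) after 4–6 h; background-subtracted, normalised to DMSO control, IC50 fitted from percent survival.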

[4] = In vivo pharmacokinetic analysis, plasma; set-up: species or system Balb/C female mice; settings: mice, result in words
Protocol: In Vivo Pharmacokinetic Analysis
Age 8 to 9 weeks Balb/C female mice were used for this study. The mice were maintained in a special pathogen-free environment and in disposable cages. Animal room was set to maintain temperature and relative humidity at 23° C.±3° C. and 55%±15%, respectively. Housing room was on a 12:12 light/dark cycle. Water was supplied ad libitum to each cage via water bottles. All mice were fed rodent diet with 18% protein. All animals were weighed before commencement of the study.
Compound 1 was stored at 4° C. protected from light. Dosing solutions were used within 2 hours of preparation. Compound 1 was formulated within 2 hours prior to dosing by adding the pre-calculated volume of PEG 400 (40% of total solution volume). Formulated compound 1 was vortexed and sonicated until a clear solution was formed. […]
The concentration of Compound 1 was determined by a UPLC-TIS-MS-MS method (ultra performance liquid chromatography-turbo ion spray-tandem mass spectrometry). […]
Mass spectrometric analysis was performed using an AB Sciex API5000 with Turbo Ion Spray interface operating in a positive ionization mode. Quantification was performed using multiple reaction monitoring (MRM) method with the transitions of (m/z) 316.104→(m/z) 219.014 for Compound 1 and (m/z) 455.346→(m/z) 165 for verapamil (internal standard). […]

[5] = test system: DU4475; assay: In vitro cell viability assay (CellTiter-Glo, ATP levels), triple negative breast cancer cells; assay type: cell-based; settings: Homo sapiens, DU-4475, 168 h, 7-day incubation, CellTiter-Glo, average values; read-out: DU4475 IC50
Outline: as §1

Row | pIC50 [2] | pIC50 [3] | pIC50 [5] | Structure (SMILES) | potency and/or metabolic stability [1] | in vivo plasma half-life (t1/2) as compared to piperlongumine [4]
1 | 6.13 | 5.72 | 6.08 | COc1cc(/C=C/C(=O)N2CCC=CC2=O)cc2c1OCCO2 [Compound 1, (E)-1-(3-(8-methoxy-2,3-dihydrobenzo[b][1,4]dioxin-6-yl)acryloyl)-5,6-dihydropyridin-2(1H)-one] | demostrated potency and/or metabolic stability | increased in vivo plasma half-life (t1/2) as compared to piperlongumine
2 | 5.98 | 5.59 | 6.02 | O=C1C=CCCN1C(=O)/C=C/C1CCCCC1 [Compound 2, (E)-1-(3-cyclohexylacryloyl)-5,6-dihydropyridin-2(1H)-one] |  | 
3 | 6.29 | 5.89 | 6.17 | O=C1C=CCCCN1C(=O)/C=C/c1ncccn1 [Compound 13, (E)-1-(3-(pyrimidin-2-yl)acryloyl)-1,5,6,7-tetrahydro-2H-azepin-2-one] |  | 
